Reference: patent US9062124B2, “GIP-based mixed agonists for treatment of metabolic disorders and obesity” (priority 2008, dated 2015)
pEC50: −log10 of the molar value. Where a SMILES comes first, the peptide text is derived from it. [ ]: non-standard residue; d: D form. Aib = CC(C)(N)C(=O)O

What was measured:
Assay type in all cases: cell-based
[1] = target: T1, glucagon receptor (Homo sapiens, UniProt P47871); test: cAMP synthesis functional assay (firefly luciferase reporter in HEK293 cells), glucagon receptor; details: for pEC50: Glucagon Receptor EC50, cAMP luciferase reporter assay as in Example 16; for Glucagon Receptor relative activity: relative to the standard (Std.) EC50 of the same run
T1 construct: expressed in transfected cells; host or cells: HEK293
T1 sequence (P47871 26-477): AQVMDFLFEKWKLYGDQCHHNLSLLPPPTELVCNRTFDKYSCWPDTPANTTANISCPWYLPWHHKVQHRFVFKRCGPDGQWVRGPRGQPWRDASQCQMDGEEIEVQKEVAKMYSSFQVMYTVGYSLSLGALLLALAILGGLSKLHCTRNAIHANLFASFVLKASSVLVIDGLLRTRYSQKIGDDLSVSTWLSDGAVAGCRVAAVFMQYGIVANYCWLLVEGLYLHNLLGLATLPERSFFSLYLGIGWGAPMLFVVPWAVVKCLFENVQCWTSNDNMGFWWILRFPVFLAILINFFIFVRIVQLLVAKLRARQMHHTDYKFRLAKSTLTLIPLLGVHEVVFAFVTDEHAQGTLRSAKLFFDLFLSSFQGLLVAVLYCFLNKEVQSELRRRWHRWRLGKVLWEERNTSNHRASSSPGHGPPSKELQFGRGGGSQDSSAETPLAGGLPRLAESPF

[2] = target: T2, GLP-1 receptor (Homo sapiens, UniProt P43220); test: cAMP synthesis functional assay (firefly luciferase reporter in HEK293 cells), GLP-1 receptor; details: for pEC50: GLP-1 Receptor EC50, cAMP luciferase reporter assay as in Example 16; for GLP-1 Receptor relative activity: relative to the standard (Std.) EC50 of the same run
T2 construct: expressed in transfected cells; host or cells: HEK293
T2 sequence (P43220 24-463, species assumed): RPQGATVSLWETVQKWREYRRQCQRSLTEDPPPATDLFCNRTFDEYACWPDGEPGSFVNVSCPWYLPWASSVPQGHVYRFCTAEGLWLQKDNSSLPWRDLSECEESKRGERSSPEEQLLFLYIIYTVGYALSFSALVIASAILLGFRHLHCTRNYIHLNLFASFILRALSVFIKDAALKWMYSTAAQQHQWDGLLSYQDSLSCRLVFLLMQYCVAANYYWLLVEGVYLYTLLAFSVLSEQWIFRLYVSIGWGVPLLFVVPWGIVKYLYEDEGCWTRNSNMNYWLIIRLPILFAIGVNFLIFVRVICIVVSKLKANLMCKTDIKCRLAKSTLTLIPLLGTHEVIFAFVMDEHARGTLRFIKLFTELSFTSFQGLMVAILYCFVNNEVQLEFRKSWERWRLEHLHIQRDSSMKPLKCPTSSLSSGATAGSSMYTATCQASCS

[3] = target: T3, GIP receptor (Homo sapiens, UniProt P48546); test: cAMP synthesis functional assay (firefly luciferase reporter in HEK293 cells), GIP receptor; details: for GIP Receptor relative activity: relative to the standard (Std.) EC50 of the same run; for pEC50: GIP Receptor EC50, cAMP luciferase reporter assay as in Example 16
T3 construct: expressed in transfected cells; host or cells: HEK293
T3 sequence (P48546 22-466): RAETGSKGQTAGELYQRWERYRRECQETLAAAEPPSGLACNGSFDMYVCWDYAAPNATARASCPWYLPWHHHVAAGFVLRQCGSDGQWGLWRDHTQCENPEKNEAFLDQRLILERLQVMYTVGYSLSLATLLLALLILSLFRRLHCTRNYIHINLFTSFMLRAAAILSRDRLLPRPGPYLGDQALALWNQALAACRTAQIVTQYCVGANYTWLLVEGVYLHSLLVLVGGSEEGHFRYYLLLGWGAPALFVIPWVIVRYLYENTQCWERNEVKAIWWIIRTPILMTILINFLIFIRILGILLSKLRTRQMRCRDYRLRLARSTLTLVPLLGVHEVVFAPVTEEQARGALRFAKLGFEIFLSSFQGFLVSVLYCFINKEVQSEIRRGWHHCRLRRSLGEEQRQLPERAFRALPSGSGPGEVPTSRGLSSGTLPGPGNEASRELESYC

[4] = test system: glucagon receptor, GLP-1 receptor or GIP receptor; test: Agonist profile across receptors assigned from the cAMP reporter assay data; details: assigned from the in vitro EC50 data of Tables 1-4

## CC[C@H](C)[C@H](NC(=O)[C@H](CO)NC(=O)[C@H](CCCCN)NC(=O)[C@H](CC(=O)O)NC(=O)[C@H](CO)NC(=O)[C@@H](NC(=O)[C@H](Cc1ccccc1)NC(=O)[C@@H](NC(=O)CNC(=O)[C@H](CCC(=O)O)NC(=O)C(C)(C)NC(=O)[C@@H](N)Cc1ccc(O)cc1)[C@@H](C)O)[C@@H](C)O)C(=O)N[C@@H](Cc1ccc(O)cc1)C(=O)N[C@@H](CC(C)C)C(=O)N[C@@H](CC(=O)O)C(=O)N[C@@H](CCCCN)C(=O)N[C@@H](CCC(N)=O)C(=O)N[C@@H](C)C(=O)N[C@@H](C)C(=O)NC(C)(C)C(=O)N[C@@H](CCC(=O)O)C(=O)N[C@@H](Cc1ccccc1)C(=O)N[C@H](C(=O)N[C@@H](CC(N)=O)C(=O)N[C@@H](Cc1c[nH]c2ccccc12)C(=O)N[C@@H](CC(C)C)C(=O)N[C@@H](CC(C)C)C(=O)N[C@@H](C)C(=O)NCC(N)=O)C(C)C [mt-285] (H-Y[Aib]EGTFTSDKSIYLDKQAA[Aib]EFVNWLLAG-NH2; N-terminus assumed)
[1]
  pEC50: 7.90
  Glucagon Receptor relative activity: 0.23%
[2]
  pEC50: 9.11
  GLP-1 Receptor relative activity: 0.75%
[3]
  GIP Receptor relative activity: 36.43%
[4]
  receptor activity profile (glucagon / GLP-1 / GIP agonism): exhibited activity at only the GIP receptor

## CCCCCCCCCCCCCC(=O)NCCCC[C@H](NC(=O)[C@H](CO)NC(=O)[C@@H]1CCCN1C(=O)[C@@H]1CCCN1C(=O)[C@@H]1CCCN1C(=O)[C@H](C)NC(=O)CNC(=O)[C@H](CO)NC(=O)[C@H](CO)NC(=O)[C@@H]1CCCN1C(=O)CNC(=O)CNC(=O)[C@H](C)NC(=O)[C@H](CC(C)C)NC(=O)[C@H](CC(C)C)NC(=O)[C@H](Cc1c[nH]c2ccccc12)NC(=O)[C@H](CS)NC(=O)[C@@H](NC(=O)[C@H](Cc1ccccc1)NC(=O)[C@H](CCC(=O)O)NC(=O)C(C)(C)NC(=O)[C@H](C)NC(=O)[C@H](C)NC(=O)[C@H](CCC(N)=O)NC(=O)[C@H](CCCCN)NC(=O)[C@H](CC(=O)O)NC(=O)[C@H](CC(C)C)NC(=O)[C@H](Cc1ccc(O)cc1)NC(=O)[C@@H](NC(=O)[C@H](CO)NC(=O)[C@H](Cc1ccc(O)cc1)NC(=O)[C@H](CC(=O)O)NC(=O)[C@H](CO)NC(=O)[C@@H](NC(=O)[C@H](Cc1ccccc1)NC(=O)[C@@H](NC(=O)CNC(=O)[C@H](CCC(N)=O)NC(=O)C(C)(C)NC(=O)[C@@H](N)Cc1ccc(O)cc1)[C@@H](C)O)[C@@H](C)O)[C@@H](C)CC)C(C)C)C(N)=O [mt-286]
[1]
  pEC50: 10.21
  Glucagon Receptor relative activity: 84.80%
[2]
  pEC50: 10.65
  GLP-1 Receptor relative activity: 52.00%
[3]
  pEC50: 10.80
  GIP Receptor relative activity: 68.55%
[4]
  receptor activity profile (glucagon / GLP-1 / GIP agonism): exhibited activity at the GIP, GLP-1, and glucagon receptors

## CCCCCCCCCCCCCCCC(=O)NCCCC[C@H](NC(=O)[C@H](CO)NC(=O)[C@@H]1CCCN1C(=O)[C@@H]1CCCN1C(=O)[C@@H]1CCCN1C(=O)[C@H](C)NC(=O)CNC(=O)[C@H](CO)NC(=O)[C@H](CO)NC(=O)[C@@H]1CCCN1C(=O)CNC(=O)CNC(=O)[C@H](C)NC(=O)[C@H](CC(C)C)NC(=O)[C@H](CC(C)C)NC(=O)[C@H](Cc1c[nH]c2ccccc12)NC(=O)[C@H](CS)NC(=O)[C@@H](NC(=O)[C@H](Cc1ccccc1)NC(=O)[C@H](CCC(=O)O)NC(=O)C(C)(C)NC(=O)[C@H](C)NC(=O)[C@H](C)NC(=O)[C@H](CCC(N)=O)NC(=O)[C@H](CCCCN)NC(=O)[C@H](CC(=O)O)NC(=O)[C@H](CC(C)C)NC(=O)[C@H](Cc1ccc(O)cc1)NC(=O)[C@@H](NC(=O)[C@H](CO)NC(=O)[C@H](Cc1ccc(O)cc1)NC(=O)[C@H](CC(=O)O)NC(=O)[C@H](CO)NC(=O)[C@@H](NC(=O)[C@H](Cc1ccccc1)NC(=O)[C@@H](NC(=O)CNC(=O)[C@H](CCC(N)=O)NC(=O)C(C)(C)NC(=O)[C@@H](N)Cc1ccc(O)cc1)[C@@H](C)O)[C@@H](C)O)[C@@H](C)CC)C(C)C)C(N)=O [mt-287]
[1]
  pEC50: 10.73
  Glucagon Receptor relative activity: 277.54%
[2]
  pEC50: 10.91
  GLP-1 Receptor relative activity: 94.35%
[3]
  pEC50: 11.03
  GIP Receptor relative activity: 117.20%
[4]
  receptor activity profile (glucagon / GLP-1 / GIP agonism): exhibited activity at the GIP, GLP-1, and glucagon receptors

## CCCCCCCCCCCCCCCCCC(=O)NCCCC[C@H](NC(=O)[C@H](CO)NC(=O)[C@@H]1CCCN1C(=O)[C@@H]1CCCN1C(=O)[C@@H]1CCCN1C(=O)[C@H](C)NC(=O)CNC(=O)[C@H](CO)NC(=O)[C@H](CO)NC(=O)[C@@H]1CCCN1C(=O)CNC(=O)CNC(=O)[C@H](C)NC(=O)[C@H](CC(C)C)NC(=O)[C@H](CC(C)C)NC(=O)[C@H](Cc1c[nH]c2ccccc12)NC(=O)[C@H](CS)NC(=O)[C@@H](NC(=O)[C@H](Cc1ccccc1)NC(=O)[C@H](CCC(=O)O)NC(=O)C(C)(C)NC(=O)[C@H](C)NC(=O)[C@H](C)NC(=O)[C@H](CCC(N)=O)NC(=O)[C@H](CCCCN)NC(=O)[C@H](CC(=O)O)NC(=O)[C@H](CC(C)C)NC(=O)[C@H](Cc1ccc(O)cc1)NC(=O)[C@@H](NC(=O)[C@H](CO)NC(=O)[C@H](Cc1ccc(O)cc1)NC(=O)[C@H](CC(=O)O)NC(=O)[C@H](CO)NC(=O)[C@@H](NC(=O)[C@H](Cc1ccccc1)NC(=O)[C@@H](NC(=O)CNC(=O)[C@H](CCC(N)=O)NC(=O)C(C)(C)NC(=O)[C@@H](N)Cc1ccc(O)cc1)[C@@H](C)O)[C@@H](C)O)[C@@H](C)CC)C(C)C)C(N)=O [mt-288]
[1]
  pEC50: 10.68
  Glucagon Receptor relative activity: 250.72%
[2]
  pEC50: 10.86
  GLP-1 Receptor relative activity: 84.78%
[3]
  pEC50: 10.86
  GIP Receptor relative activity: 79.56%
[4]
  receptor activity profile (glucagon / GLP-1 / GIP agonism): exhibited activity at the GIP, GLP-1, and glucagon receptors

## CC[C@H](C)[C@H](NC(=O)[C@H](CO)NC(=O)[C@H](Cc1ccc(O)cc1)NC(=O)[C@H](CC(=O)O)NC(=O)[C@H](CO)NC(=O)[C@@H](NC(=O)[C@H](Cc1ccccc1)NC(=O)[C@@H](NC(=O)CNC(=O)[C@H](CCC(N)=O)NC(=O)C(C)(C)NC(=O)[C@@H](N)Cc1ccc(O)cc1)[C@@H](C)O)[C@@H](C)O)C(=O)N[C@@H](Cc1ccc(O)cc1)C(=O)N[C@@H](CC(C)C)C(=O)N[C@@H](CC(=O)O)C(=O)N[C@@H](CCCCN)C(=O)N[C@@H](CCC(N)=O)C(=O)N[C@@H](C)C(=O)N[C@@H](C)C(=O)NC(C)(C)C(=O)N[C@@H](CCC(=O)O)C(=O)N[C@@H](Cc1ccccc1)C(=O)N[C@H](C(=O)N[C@@H](CS)C(=O)N[C@@H](Cc1c[nH]c2ccccc12)C(=O)N[C@@H](CC(C)C)C(=O)N[C@@H](CC(C)C)C(=O)N[C@@H](C)C(=O)NCC(=O)NCC(=O)N1CCC[C@H]1C(=O)N[C@@H](CO)C(=O)N[C@@H](CO)C(=O)NCC(=O)N[C@@H](C)C(=O)N1CCC[C@H]1C(=O)N1CCC[C@H]1C(=O)N1CCC[C@H]1C(=O)N[C@@H](CO)C(=O)N[C@@H](CCCCN)C(N)=O)C(C)C [mt-289]
[1]
  pEC50: 10.12
  Glucagon Receptor relative activity: 67.75%
[2]
  pEC50: 10.84
  GLP-1 Receptor relative activity: 81.25%
[3]
  pEC50: 10.63
  GIP Receptor relative activity: 46.58%
[4]
  receptor activity profile (glucagon / GLP-1 / GIP agonism): exhibited activity at the GIP, GLP-1, and glucagon receptors
